Measured values: patent US5455222A, “1-substituted-5-thiomethylthiocyanato-1H-tetrazoles, compositions containing them and their use as antimicrobial and marine antifouling agents” (The Dow Chemical Company, priority 1994, dated 1995)
Values after ≈ are worked out from the molar mass of the structure shown.

Tested on: Trichoderma viride (Tv)
Assay: Minimum inhibitory concentration (MIC), yeast/fungi in malt yeast agar
Assay type: cell-based, Trichoderma viride ATCC 8678
Details: 30° C., 72 hours for fungi
Experimental: (§1) The minimum inhibitory concentration (MIC) for the compounds listed in Table I is determined for 9 bacteria, using nutrient agar, and 7 yeast and fungi, using malt yeast agar. A one percent solution of the test compound is prepared in a mixture of acetone and water.
(§2) Malt yeast agar is prepared by adding 3 g yeast extract and 45 g malt agar per liter of deionized water. The specific agar is dispensed in 30 mL aliquots into 25×200 mm test tubes, capped and autoclaved for 15 minutes at 115° C.
(§3) The test tubes containing the agar are cooled in a water bath until the temperature of the agar is 48° C. Then, an appropriate amount of the one percent solution of the test compound is added (except in the controls where no compound is added) to the respective test tubes so that the final concentrations are 500, 250, 100, 50, 25, 10, 5, 2.5, 1.0 and zero parts per million of the test compound in the agar, thus having a known concentration of test compound dispersed therein. The contents of the test tubes are then transferred to respective petri plates. After drying for 24 hours, the petri plates containing nutrient agar are inoculated with bacteria and those containing malt yeast agar are inoculated with yeast and fungi.
(§4) The inoculation with the yeast and fungi is accomplished as follows. Cultures of yeast and fungi are incubated for seven days on malt yeast agar at 30° C. These cultures are used to prepare suspensions by the following procedure. A suspension of each organism is prepared by adding 10 mL of sterile saline and 10 microliters of octylphenoxy polyethoxy ethanol to the agar slant of yeast or fungi. The sterile saline/octylphenoxy polyethoxy ethanol solution is then agitated with a sterile swab to suspend the microorganism grown on the slant. Each resulting suspension is diluted into sterile saline (1 part suspension to 9 parts sterile saline). Aliquots of these dilutions are placed in individual wells of Steer's Replicator and petri plates inoculated as previously described. The petri plates are incubated at 30° C. and read after 48 hours for yeast and 72 hours for fungi.
(§5) Table II lists the bacteria, yeast and fungi used in the MIC test described above along with their respective American Type Culture Collection (ATCC) identification numbers.
(§6) In Tables III and IV, the MIC values of the compounds described in Table I as compared to the MIC of a standard commercial preservative (with 1-(3-chloroallyl)-3,5,7-triaza-1-azoniaadamantane chloride as the active agent and referred to in Tables III and IV as "STANDARD I") are set forth for the bacteria organisms and yeast/fungi organisms which are listed in Table II.

Row | SMILES | MIC [µg/mL]
1 | N#CSCSc1nnnn1-c1ccc([N+](=O)[O-])cc1 [XI, 1-(4-Nitrophenyl)-5-thiomethylthiocyanato-1H-tetrazole] | 25 (≈ 84.9 µM)

Tested on: Salmonella choleraesuis (Sc)
Assay: Minimum inhibitory concentration (MIC), bacteria in nutrient agar
Assay type: cell-based, Salmonella choleraesuis ATCC 10708
Details: Salmonella enterica, nutrient agar pH 6.8, 30° C., 48 hours
Experimental: as §1
(§7) Nutrient agar is prepared at pH 6.8, representing a neutral medium, and at pH 8.2, representing an alkaline medium. The nutrient agars are prepared by adding 23 g of nutrient agar to one liter of deionized water. In addition, the alkaline medium is prepared by adjusting a 0.04M solution of N-[tris-(hydroxymethyl)methyl]glycine buffered deionized water with concentrated sodium hydroxide to a pH of 8.5.
as §3
(§8) The inoculation with bacteria is accomplished by using the following procedure. Twenty-four hour-cultures of each of the bacteria are prepared by incubating the respective bacteria in tubes containing nutrient broth for 24 hours at 30° C. in a shaker. Dilutions of each of the 24 hour-cultures are made so that nine separate suspensions (one for each of the nine test bacteria) are made, each containing 10^8 colony forming units (CFU) per mL of suspension of a particular bacteria. Aliquots of 0.3 mL of each of the bacterial suspensions are used to fill the individual wells of Steer's Replicator. For each microbial suspension, 0.3 mL was used to fill three wells (i.e., three wells of 0.3 mL each) so that for the nine different bacteria, 27 wells are filled. The Steer's Replicator is then used to inoculate both the neutral and alkaline pH nutrient agar petri plates.
(§9) The inoculated petri plates are incubated at 30° C. for 48 hours and then read to determine if the test compound which is incorporated into the agar prevented growth of the respective bacteria.
as §5, §6

Row | SMILES | MIC [µg/mL]
2 | N#CSCSc1nnnn1-c1ccc([N+](=O)[O-])cc1 [XI, 1-(4-Nitrophenyl)-5-thiomethylthiocyanato-1H-tetrazole] | > 100

Same assay, conditions: Salmonella enterica, nutrient agar pH 8.2, 30° C., 48 hours

Row | SMILES | MIC [µg/mL]
3 | N#CSCSc1nnnn1-c1ccc([N+](=O)[O-])cc1 [XI, 1-(4-Nitrophenyl)-5-thiomethylthiocyanato-1H-tetrazole] | > 100

Tested on: Candida albicans (Ca)
Assay: Minimum inhibitory concentration (MIC), yeast/fungi in malt yeast agar
Assay type: cell-based, Candida albicans ATCC 10231
Details: 30° C., 48 hours for yeast
Experimental: as §1, §2, §3, §4, §5, §6

Row | SMILES | MIC [µg/mL]
4 | N#CSCSc1nnnn1-c1ccc([N+](=O)[O-])cc1 [XI, 1-(4-Nitrophenyl)-5-thiomethylthiocyanato-1H-tetrazole] | 100 (≈ 340 µM)

Tested on: Escherichia coli (Ec)
Assay: Minimum inhibitory concentration (MIC), bacteria in nutrient agar
Assay type: cell-based, Escherichia coli ATCC 11229
Details: nutrient agar pH 6.8, 30° C., 48 hours
Experimental: as §1, §7, §3, §8, §9, §5, §6

Row | SMILES | MIC [µg/mL]
5 | N#CSCSc1nnnn1-c1ccc([N+](=O)[O-])cc1 [XI, 1-(4-Nitrophenyl)-5-thiomethylthiocyanato-1H-tetrazole] | > 100

Same assay, conditions: nutrient agar pH 8.2, 30° C., 48 hours

Row | SMILES | MIC [µg/mL]
6 | N#CSCSc1nnnn1-c1ccc([N+](=O)[O-])cc1 [XI, 1-(4-Nitrophenyl)-5-thiomethylthiocyanato-1H-tetrazole] | > 100

Tested on: Enterobacter aerogenes (Ea)
Assay: as above
Assay type: cell-based, Enterobacter aerogenes ATCC 13048
Details: Klebsiella aerogenes; nutrient agar pH 6.8, 30° C., 48 hours
Experimental: as §1, §7, §3, §8, §9, §5, §6

Row | SMILES | MIC [µg/mL]
7 | N#CSCSc1nnnn1-c1ccc([N+](=O)[O-])cc1 [XI, 1-(4-Nitrophenyl)-5-thiomethylthiocyanato-1H-tetrazole] | > 100

Same assay, conditions: Klebsiella aerogenes; nutrient agar pH 8.2, 30° C., 48 hours

Row | SMILES | MIC [µg/mL]
8 | N#CSCSc1nnnn1-c1ccc([N+](=O)[O-])cc1 [XI, 1-(4-Nitrophenyl)-5-thiomethylthiocyanato-1H-tetrazole] | > 100

Tested on: Fusarium oxysporum (Fo)
Assay: Minimum inhibitory concentration (MIC), yeast/fungi in malt yeast agar
Assay type: cell-based, Fusarium oxysporum ATCC 48112
Details: 30° C., 72 hours for fungi
Experimental: as §1, §2, §3, §4, §5, §6

Row | SMILES | MIC [µg/mL]
9 | N#CSCSc1nnnn1-c1ccc([N+](=O)[O-])cc1 [XI, 1-(4-Nitrophenyl)-5-thiomethylthiocyanato-1H-tetrazole] | 25 (≈ 84.9 µM)

Tested on: Aureobasidium pullulan (Ap)
Assay: as above
Assay type: cell-based, Aureobasidium pullulan ATCC 16622
Details: 30° C., read after 48 hours for yeast and 72 hours for fungi
Experimental: as §1, §2, §3, §4, §5, §6

Row | SMILES | MIC [µg/mL]
10 | N#CSCSc1nnnn1-c1ccc([N+](=O)[O-])cc1 [XI, 1-(4-Nitrophenyl)-5-thiomethylthiocyanato-1H-tetrazole] | 10 (≈ 34 µM)

Tested on: Staphylococcus aureus (Sa)
Assay: Minimum inhibitory concentration (MIC), bacteria in nutrient agar
Assay type: cell-based, Staphylococcus aureus ATCC 6538
Details: nutrient agar pH 6.8, 30° C., 48 hours
Experimental: as §1, §7, §3, §8, §9, §5, §6

Row | SMILES | MIC [µg/mL]
11 | N#CSCSc1nnnn1-c1ccc([N+](=O)[O-])cc1 [XI, 1-(4-Nitrophenyl)-5-thiomethylthiocyanato-1H-tetrazole] | 100 (≈ 340 µM)

Same assay, conditions: nutrient agar pH 8.2, 30° C., 48 hours

Row | SMILES | MIC [µg/mL]
12 | N#CSCSc1nnnn1-c1ccc([N+](=O)[O-])cc1 [XI, 1-(4-Nitrophenyl)-5-thiomethylthiocyanato-1H-tetrazole] | 50 (≈ 170 µM)

Tested on: Proteus vulgaris (Pv)
Assay: as above
Assay type: cell-based, Proteus vulgaris ATCC 881
Details: nutrient agar pH 6.8, 30° C., 48 hours
Experimental: as §1, §7, §3, §8, §9, §5, §6

Row | SMILES | MIC [µg/mL]
13 | N#CSCSc1nnnn1-c1ccc([N+](=O)[O-])cc1 [XI, 1-(4-Nitrophenyl)-5-thiomethylthiocyanato-1H-tetrazole] | < 100

Same assay, conditions: nutrient agar pH 8.2, 30° C., 48 hours

Row | SMILES | MIC [µg/mL]
14 | N#CSCSc1nnnn1-c1ccc([N+](=O)[O-])cc1 [XI, 1-(4-Nitrophenyl)-5-thiomethylthiocyanato-1H-tetrazole] | > 100

Tested on: Pseudomonas aeruginosa (PRD-10)
Assay: as above
Assay type: cell-based, Pseudomonas aeruginosa ATCC 15442
Details: nutrient agar pH 6.8, 30° C., 48 hours
Experimental: as §1, §7, §3, §8, §9, §5, §6

Row | SMILES | MIC [µg/mL]
15 | N#CSCSc1nnnn1-c1ccc([N+](=O)[O-])cc1 [XI, 1-(4-Nitrophenyl)-5-thiomethylthiocyanato-1H-tetrazole] | > 100

Same assay, conditions: nutrient agar pH 8.2, 30° C., 48 hours

Row | SMILES | MIC [µg/mL]
16 | N#CSCSc1nnnn1-c1ccc([N+](=O)[O-])cc1 [XI, 1-(4-Nitrophenyl)-5-thiomethylthiocyanato-1H-tetrazole] | > 100

Tested on: Penicillium chrysogenum (Pc)
Assay: Minimum inhibitory concentration (MIC), yeast/fungi in malt yeast agar
Assay type: cell-based, Penicillium chrysogenum ATCC 9480
Details: 30° C., 72 hours for fungi
Experimental: as §1, §2, §3, §4, §5, §6

Row | SMILES | MIC [µg/mL]
17 | N#CSCSc1nnnn1-c1ccc([N+](=O)[O-])cc1 [XI, 1-(4-Nitrophenyl)-5-thiomethylthiocyanato-1H-tetrazole] | < 2.5

Tested on: Bacillus subtilis (Bs)
Assay: Minimum inhibitory concentration (MIC), bacteria in nutrient agar
Assay type: cell-based, Bacillus subtilis ATCC 8473
Details: nutrient agar pH 6.8, 30° C., 48 hours
Experimental: as §1, §7, §3, §8, §9, §5, §6

Row | SMILES | MIC [µg/mL]
18 | N#CSCSc1nnnn1-c1ccc([N+](=O)[O-])cc1 [XI, 1-(4-Nitrophenyl)-5-thiomethylthiocyanato-1H-tetrazole] | > 100

Same assay, conditions: nutrient agar pH 8.2, 30° C., 48 hours

Row | SMILES | MIC [µg/mL]
19 | N#CSCSc1nnnn1-c1ccc([N+](=O)[O-])cc1 [XI, 1-(4-Nitrophenyl)-5-thiomethylthiocyanato-1H-tetrazole] | > 100

Tested on: Klebsiella pneumoniae (Kp)
Assay: as above
Assay type: cell-based, Klebsiella pneumoniae ATCC 8308
Details: nutrient agar pH 6.8, 30° C., 48 hours
Experimental: as §1, §7, §3, §8, §9, §5, §6

Row | SMILES | MIC [µg/mL]
20 | N#CSCSc1nnnn1-c1ccc([N+](=O)[O-])cc1 [XI, 1-(4-Nitrophenyl)-5-thiomethylthiocyanato-1H-tetrazole] | < 100

Same assay, conditions: nutrient agar pH 8.2, 30° C., 48 hours

Row | SMILES | MIC [µg/mL]
21 | N#CSCSc1nnnn1-c1ccc([N+](=O)[O-])cc1 [XI, 1-(4-Nitrophenyl)-5-thiomethylthiocyanato-1H-tetrazole] | > 100

Tested on: Pseudomonas aeruginosa (Pa)
Assay: as above
Assay type: cell-based, Pseudomonas aeruginosa ATCC 10145
Details: nutrient agar pH 6.8, 30° C., 48 hours
Experimental: as §1, §7, §3, §8, §9, §5, §6

Row | SMILES | MIC [µg/mL]
22 | N#CSCSc1nnnn1-c1ccc([N+](=O)[O-])cc1 [XI, 1-(4-Nitrophenyl)-5-thiomethylthiocyanato-1H-tetrazole] | > 100

Same assay, conditions: nutrient agar pH 8.2, 30° C., 48 hours

Row | SMILES | MIC [µg/mL]
23 | N#CSCSc1nnnn1-c1ccc([N+](=O)[O-])cc1 [XI, 1-(4-Nitrophenyl)-5-thiomethylthiocyanato-1H-tetrazole] | > 100

Tested on: Saccharomyces cerevisiae (Sc)
Assay: Minimum inhibitory concentration (MIC), yeast/fungi in malt yeast agar
Assay type: cell-based, Saccharomyces cerevisiae ATCC 4105
Details: 30° C., 48 hours for yeast
Experimental: as §1, §2, §3, §4, §5, §6

Row | SMILES | MIC [µg/mL]
24 | N#CSCSc1nnnn1-c1ccc([N+](=O)[O-])cc1 [XI, 1-(4-Nitrophenyl)-5-thiomethylthiocyanato-1H-tetrazole] | 10 (≈ 34 µM)

Tested on: Aspergillus niger (An)
Assay: as above
Assay type: cell-based, Aspergillus niger ATCC 16404
Details: 30° C., 72 hours for fungi
Experimental: as §1, §2, §3, §4, §5, §6

Row | SMILES | MIC [µg/mL]
25 | N#CSCSc1nnnn1-c1ccc([N+](=O)[O-])cc1 [XI, 1-(4-Nitrophenyl)-5-thiomethylthiocyanato-1H-tetrazole] | 5 (≈ 17 µM)
